According to patent US11998014B1, “O-{1-[(3,5-dinitrobenzoyl)amino]propan-2-yl} (4-chlorophenyl)carbamothioate as an eco-friendly insecticidal agent against Spodoptera littoralis (boisd.)” (KING FAISAL UNIVERSITY, priority 2024, dated 2024):
Values after ≈ are worked out from the molar mass of the structure shown. Read-outs that look alike come from different tables or passages of the source.

Columns and labels:
aquatic insects = conditions: cited from earlier work
Spodoptera littoralis = assay: Insecticidal leaf dip bioassay on S. littoralis larvae (castor bean leaf discs); type: in vivo, Spodoptera littoralis (cotton leafworm, laboratory strain); conditions: for Toxicity index %: 72 hours, fenoxycarb's LC50 / compound's LC50 * 100; for LC50: Spodoptera littoralis, in Gossypium hirsutum, foliar, 72 h
Description: Five concentrations (200, 100, 50, 25, 12.5 ppm) were designed for this synthetic compound and the reference fenoxycarb's compound as the dynamic ingredients based on ppm via diluting the commercial formulation.
In this experiment, the synthetic compound was tested for its insecticidal bioactivity using the industry-standard leaf dip bioassay techniques. Preparation of the compound stocks to create […], 0.1 g of compounds 2 were dissolved in five mL of Dimethyl formamide & combined with 5 mL of distilled water. Until usage, the stocks were kept in a refrigerator. The target substance test results were noted & the concentrations needed to destroy 50% (LC50) of S. littoralis larvae were calculated. The target compound was employed in five different concentrations, and 0.1% Tween 80 was employed as a surfactant. Castor bean leaf discs (nine centimeters in diameter) were dipped in the concentration under test for ten seconds, then fed to 2th and 4th larvae, which were roughly the same size and housed in glass jars (five pound). Each action carried out 3 times with ten larvae each. The mortality equalized via Abbott's formula. Calculations of mortality setback line were measurably rummage via probity analysis. Harmfulness index was strongminded via sun equations. The mortality results of larval insect were estimated through employing probit analysis through a statistics (LDP-line) equation which estimate the LC50 values with 95% fiducially limits of lower, upper confidence limit and slope.

SMILES	LC50 (aquatic insects) [µg/mL]	Toxicity index % (Spodoptera littoralis; 2nd instar larvae) [%]	LC50 (mg/L) at 95% (Spodoptera littoralis; 2nd instar larvae, after 72 hours of treatment, leaf dip)	Toxicity index % (Spodoptera littoralis; 4th instar larvae) [%]	LC50 (Spodoptera littoralis; 2nd instar larvae, after 72 hours of treatment, leaf dip, read-out: LC50 (mg/L) at 95%) [mg/L]	LC50 (Spodoptera littoralis; 4th instar larvae, after 72 hours of treatment, leaf dip, read-out: LC50 (mg/L) at 95%) [mg/L]	LC50 (Spodoptera littoralis; read-out: LC50 (mg/L) at 95%, 2nd instar larvae, after 72 hours of treatment, leaf dip) [mg/L]	LC50 (Spodoptera littoralis; read-out: LC50 (mg/L) at 95%, 4th instar larvae, after 72 hours of treatment, leaf dip) [mg/L]
CCc1ccc(C(=O)NN(C(=O)c2cc(C)cc(C)c2)C(C)(C)C)cc1 [tebufenozide]	100 to 1000							
CC(CNC(=O)c1cc([N+](=O)[O-])cc([N+](=O)[O-])c1)OC(=S)Nc1ccc(Cl)cc1 (stereo not shown) [Compound 2, O-{1-[(3,5-dinitrobenzoyl)amino]propan-2-yl} (4-chlorophenyl)carbamothioate]		47.52	about 12.505 mg/L	88.23	12.5 (≈ 28.5 µM)	~67.9 (≈ 155 µM)		
CCOC(=O)NCCOc1ccc(Oc2ccccc2)cc1 [fenoxycarb]		100		100			5.94 (≈ 19.7 µM)	59.9 (≈ 199 µM)
